Each compound was assayed against T1, recombinant human Aggrecanase-2 Agg2-Phe628 (Homo sapiens, UniProt Q9UNA0) (assay: Aggrecanase 2 in vitro enzyme assay (Agg-2 FRET, quenched fluorescent peptide substrate)). Conditions: concentration not given.
T1 sequence (Q9UNA0 262-628 limits assumed): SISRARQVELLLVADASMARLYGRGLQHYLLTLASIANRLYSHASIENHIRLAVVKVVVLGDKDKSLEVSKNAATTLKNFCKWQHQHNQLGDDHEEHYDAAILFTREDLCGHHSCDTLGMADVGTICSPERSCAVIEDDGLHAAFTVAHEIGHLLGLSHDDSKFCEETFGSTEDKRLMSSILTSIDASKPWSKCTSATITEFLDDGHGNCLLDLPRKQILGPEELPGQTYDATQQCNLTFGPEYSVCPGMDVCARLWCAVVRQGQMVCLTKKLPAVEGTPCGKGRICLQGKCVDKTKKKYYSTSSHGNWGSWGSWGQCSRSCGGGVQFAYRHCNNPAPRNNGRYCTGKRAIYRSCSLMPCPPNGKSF
Type: biochemical
Parameters: purified recombinant human Aggrecanase-2 Agg2-Phe628 (MW=41,737); This is a truncated form of full-length human aggrecanase-2; made in house; host or cells: CHO cells
Experimental: A continuous assay was used in which the substrate was a synthetic peptide containing a fluorescent group (o-aminobenzyl, Abz), which was quenched by energy transfer to a 2,4-dinitrophenyl group (Dnp). The buffer used in this assay was 50 mM HEPES, pH 7.5, 100 mM NaCl, 5 mM CaCl2, 0.1% CHAPS, 5% glycerol. The source of enzyme was purified recombinant human Aggrecanase-2 Agg2-Phe628 (MW=41,737). This is a truncated form of full-length human aggrecanase-2 that was expressed in CHO cells and purified. The final concentration of Agg2-Phe628 was 0.5 μg/ml. […] It is a synthetic peptide that is designed after a portion of brevican, one of the naturally occurring substrates of Aggrecanase-2, of the sequence Abz-[…]-Dap(Dnp)-KK—NH2 (mass=1740). The concentration of this substrate stock was spectrophotometrically determined using the extinction coefficient at 354 nm of 18,172 M^−1cm^−1. […] The final concentration of substrate in the assay was 25 μM.
Test compounds (in duplicate) were serially diluted from 2 mM to 0.01 μM in 100% DMSO. The total reaction volume was 100 μl. The buffer and enzyme were added first followed by addition of 10× inhibitor from the dilution plate. Enzyme and buffer alone samples were included in order to obtain the maximal rate of substrate cleavage. […] Then substrate was added, mixed and the reaction monitored for 40 min at 30° C. in kinetic mode using λex: 340 nm and % λem: 420 (GeminiXS Molecular Devices).

Agg-2 FRET Median PCT INHIB [%] | Compound
43 | CC(C)(C)c1ccc(OCC(=O)NC(c2cccc(F)c2)c2cc(Cl)c3cccnc3c2O)cc1 (stereo not shown) [2-(4-tert-butylphenoxy)-N-[(5-chloro-8-hydroxyquinolin-7-yl)(3-fluorophenyl)methyl]acetamide]
54 | CC(C)(C)c1ccc(NCC(=O)NC(c2ccccc2Cl)c2cc(Cl)c3cccnc3c2O)cc1 (stereo not shown) [Example 20, N^2-(4-tert-butylphenyl)-N^1-[(5-chloro-8-hydroxyquinolin-7-yl)(2-chlorophenyl)methyl]glycinamide]
57 | Cc1ccc(C(NC(=O)CNc2ccc(C(C)(C)C)cc2)c2cc(Cl)c3cccnc3c2O)cc1 (stereo not shown) [Example 27, N^2-(4-tert-butylphenyl)-N^1-[(5-chloro-8-hydroxyquinolin-7-yl)(4-methylphenyl)methyl]glycinamide]
50 | O=C(COc1ccc(Oc2ccccc2)cc1)NC(c1ccccc1)c1cc(Cl)c2cccnc2c1O (stereo not shown) [Example 85, N-[(5-chloro-8-hydoxyquinolin-7-yl)(phenyl)methyl]-2-(4-phenoxyphenoxy)acetamide]

Same assay, conditions: read-out: Agg-2 FRET Median IC50

Compound | IC50 [nM]
CC(=O)c1ccc(OCC(=O)NC(c2cccc([N+](=O)[O-])c2)c2cc(Cl)c3cccnc3c2O)cc1 (stereo not shown) [2-(4-acetylphenoxy)-N-[(5-chloro-8-hydroxyquinolin-7-yl)(3-nitrophenyl)methyl]acetamide] | 2330
O=C(COCc1ccccc1)NC(c1cccc(F)c1)c1cc(Cl)c2cccnc2c1O (stereo not shown) [2-(benzyloxy)-N-[(5-chloro-8-hydroxyquinolin-7-yl)(3-fluorophenyl)methyl]acetamide] | 828
O=C(CNc1cccnc1)NC(c1ccccc1Cl)c1cc(Cl)c2cccnc2c1O (stereo not shown) [Example 18, N^1-[(5-chloro-8-hydroxyquinolin-7-yl)(2-chlorophenyl)methyl]-N^2-pyridin-3-ylglycinamide] | 16900
Cc1cc(NCC(=O)NC(c2ccccc2Cl)c2cc(Cl)c3cccnc3c2O)ccc1Cl (stereo not shown) [Example 19, N^1-[(5-chloro-8-hydroxyquinolin-7-yl)(2-chlorophenyl)methyl]-N^2-(4-chloro-3-methylphenyl)glycinamide] | 1480
Cc1ccc(C(NC(=O)CNc2cccnc2)c2cc(Cl)c3cccnc3c2O)cc1 (stereo not shown) [Example 22, N^1-[(5-chloro-8-hydroxyquinolin-7-yl)(4-methylphenyl)methyl]-N^2-pyridin-3-ylglycinamide] | 9790
CC(=O)c1ccc(NCC(=O)NC(c2ccc(C)cc2)c2cc(Cl)c3cccnc3c2O)cc1 (stereo not shown) [Example 24, N^2-(4-acetylphenyl)-N^1-[(5-chloro-8-hydroxyquinolin-7-yl)(4-methylphenyl)methyl]glycinamide] | 1120
O=C(CNc1cccnc1)NC(c1cccc([N+](=O)[O-])c1)c1cc(Cl)c2cccnc2c1O (stereo not shown) [Example 28, N^1-[(5-chloro-8-hydroxyquinolin-7-yl)(3-nitrophenyl)methyl]-N^2-pyridin-3-ylglycinamide] | 1560
CC(=O)Nc1ccc(NCC(=O)NC(c2cccc([N+](=O)[O-])c2)c2cc(Cl)c3cccnc3c2O)cc1 (stereo not shown) [Example 31, N^2-[4-(acetylamino)phenyl]-N^1-[(5-chloro-8-hydroxyquinolin-7-yl)(3-nitrophenyl)methyl]glycinamide] | 2770
O=C(CNc1cccnc1)NC(c1cccc(F)c1)c1cc(Cl)c2cccnc2c1O (stereo not shown) [Example 32, N^1-[(5-chloro-8-hydroxyquinolin-7-yl)(3-fluorophenyl)methyl]-N^2-pyridin-3-ylglycinamide] | 15100
Cc1ccc(C)c(C(NC(=O)COc2ccccc2)c2cc(Cl)c3cccnc3c2O)c1 (stereo not shown) [Example 37, N-[(5-chloro-8-hydroxyquinolin-7-yl)(2,5-dimethylphenyl)methyl]-2-phenoxyacetamide] | 1490

Results, then the compound that gave them:

IC50 [nM] | Compound
1320 | Cc1cc(C(NC(=O)COc2ccccc2)c2cccc([N+](=O)[O-])c2)c(O)c2ncccc12 (stereo not shown) [Example 46, N-[(8-hydroxy-5-methylquinolin-7-yl)(3-nitrophenyl)methyl]-2-phenoxyacetamide]
1310 | CN(CC(=O)NC(c1ccccc1Cl)c1cc(Cl)c2cccnc2c1O)Cc1ccccc1 (stereo not shown) [Example 52, N^2-benzyl-N^1-[(5-chloro-8-hydroxyquinolin-7-yl)(2-chlorophenyl)methyl]-N^2-methylglycinamide]
1440 | CN(CC(=O)NC(c1cccc(F)c1)c1cc(Cl)c2cccnc2c1O)Cc1ccccc1 (stereo not shown) [Example 55, N^2-benzyl-N^1-[(5-chloro-8-hydroxyquinolin-7-yl)(3-fluorophenyl)methyl]-N^2-methylglycinamide]
776 | Cc1ccc(C(NC(=O)CN(C)c2ccccc2)c2cc(Cl)c3cccnc3c2O)cc1 (stereo not shown) [Example 58, N^1-[(5-chloro-8-hydroxyquinolin-7-yl)(4-methylphenyl)methyl]-N^2-methyl-N^2-phenylglycinamide]
1280 | Cc1ccc(C(NC(=O)CN(C)Cc2ccccc2)c2cc(Cl)c3cccnc3c2O)cc1 (stereo not shown) [Example 59, N^2-benzyl-N^1-[(5-chloro-8-hydroxyquinolin-7-yl)(4-methylphenyl)methyl]-N^2-methylglycinamide]
1830 | Cc1ccc(C(NC(=O)CNCc2ccccc2)c2cc(Cl)c3cccnc3c2O)cc1 (stereo not shown) [Example 60, N^2-benzyl-N^1-[(5-chloro-8-hydroxyquinolin-7-yl)(4-methylphenyl)methyl]glycinamide]
559 | CN(CC(=O)NC(c1cccc([N+](=O)[O-])c1)c1cc(Cl)c2cccnc2c1O)c1ccccc1 (stereo not shown) [Example 62, N^1-[(5-chloro-8-hydroxyquinolin-7-yl)(3-nitrophenyl)methyl]-N^2-methyl-N^2-phenylglycinamide]
765 | O=C(CNCc1ccccc1)NC(c1cccc([N+](=O)[O-])c1)c1cc(Cl)c2cccnc2c1O (stereo not shown) [Example 64, N^2-benzyl-N^1-[(5-chloro-8-hydroxyquinolin-7-yl)(3-nitrophenyl)methyl]glycinamide]
1920 | O=C(COc1ccccc1)NC(c1cccnc1)c1cc(Cl)c2cccnc2c1O (stereo not shown) [Example 69, N-[(5-chloro-8-hydroxyquinolin-7-yl)(pyridin-3-yl)methyl]-2-phenoxyacetamide]
5540 | CN(C)c1ccc(C(NC(=O)COc2ccccc2)c2ccc3cccnc3c2O)cc1 (stereo not shown) [Example 99, N-[[4-(dimethylamino)phenyl](8-hydroxyquinolin-7-yl)methyl]-2-phenoxyacetamide]
1090 | O=C(COc1ccccc1)NC(c1ccc(F)cc1Cl)c1cc(Cl)c2cccnc2c1O (stereo not shown) [N-[(2-chloro-4-fluorophenyl)(5-chloro-8-hydroxyquinolin-7-yl)methyl]-2-phenoxyacetamide]
1940 | O=C(COc1ccccc1)NC(c1ccc(O)cc1Cl)c1cc(Cl)c2cccnc2c1O (stereo not shown) [N-[(2-chloro-4-hydroxyphenyl)(5-chloro-8-hydroxyquinolin-7-yl)methyl]-2-phenoxyacetamide]
2500 | O=C(COc1ccccc1)NC(c1ccccc1Cl)c1ccc2cccnc2c1O (stereo not shown) [N-[(2-chlorophenyl)(8-hydroxyquinolin-7-yl)methyl]-2-phenoxyacetamide]
1040 | O=C(COc1ccccc1)NC(c1ccc(F)c(Cl)c1)c1cc(Cl)c2cccnc2c1O (stereo not shown) [N-[(3-chloro-4-fluorophenyl)(5-chloro-8-hydroxyquinolin-7-yl)methyl]-2-phenoxyacetamide]
